Results on two compounds are retold here after patent publication US20030147957A1, “Dual release formulation comprising levodopa ethyl ester and a decarboxylase inhibitor in immediate release layer with levodopa ethyl ester and a decarboxylase inhibitor in a controlled release core” (priority 2001, published 2003).

≈ marks a conversion by molar mass, not a printed value.

This data set in a line: Solubility versus pH at ~22-24° C. The note with it: 23 °C. Type of data set: physicochemical. An excerpt:
However, carbidopa and LDEE, examples of two active materials in the composition of the present invention, have different chemical and physical properties and contrasting solubility characteristics especially in acid conditions, i.e., in the gastrointestinal tract (see Table 1).

[1] abbreviates: aqueous buffer, pH 5.0, ~22-24° C.
The mark [2] stands for this setting: simulated gastric fluid, pH 1.0, ~22-24° C.

The solubility is how much of the substance goes into solution per volume. Low readings indicate little dissolved substance, high ones much dissolved substance. As to `C[C@@](Cc1ccc(O)c(O)c1)(NN)C(=O)O` [Carbidopa, carbidopa], the solubility is 1.66 mg/mL (≈ 7.34 mM) under setting [1] and 21.4 mg/mL (≈ 94.6 mM) under setting [2].
In the case of `N[C@@H](Cc1ccc(O)c(O)c1)C(=O)O` [Levodopa, levodopa], the solubility by setting is: under setting [1], 4.96 mg/mL (≈ 25.2 mM); under setting [2], 5.38 mg/mL (≈ 27.3 mM).
